{
  "source": "patent EP4140481A1",
  "about": "“PROTEIN-OLIGOMER BINDING AGENTS AND THERAPEUTIC USES THEREOF” (Galyan Bio, Inc., priority 2021, dated 2023)",
  "key": {"Mur16 and/or Mur46": {"system": "Mur16 and/or Mur46", "test": "Biacore Surface Plasmon Resonance (SPR) screening, binding to the target structures", "details": "for Binding properties: third analog screening, binding to the target structure in comparison to parent compound; for Biacore affinity: primary screen, compounds that demonstrated binding to Mur16 and/or Mur46", "method": "(§1) Exon 1 of the HTT huntingtin (NCBI Gene ID 3064) was expressed as a fusion protein with (i) TRX only (MurTRX); (ii) 16Q (Mur16); and (iii) 46Q (Mur46). MurTRX, Mur16, and Mur46 were produced and purified by HIStag and size exclusion chromatography (SEC). The protocol for MurTRX, Mur16 and Mur46 expression was adopted from Bennett, M.J. et al. Proc. Natl. Acad. Sci. USA 99, 11634-11639. 2002.\nPrimary Screen - Results - 39 compounds determined from the in-silico screen were tested. Following solvent correction and blank subtraction, double referenced binding levels for samples were plotted against binding levels on both Mur 16 and Mur 46. […] The 4 compounds consistently bind with a higher response on the 16 Q surface than the 46 Q repeat surface, despite the MAb positive control showing the opposite trend."}, "Mur46": {"biological_target": "T1, Mur46 (Homo sapiens, UniProt P42858, INS38QQQQQQQQQQQQQQQQQQQQQQQQQ)", "T1 construct": "linker […]; made in house; host or cells: E. coli BL21(DE3) plysE, pET28a+", "T1 sequence (P42858 with tags, fused parts or gaps with the stated changes limits assumed)": "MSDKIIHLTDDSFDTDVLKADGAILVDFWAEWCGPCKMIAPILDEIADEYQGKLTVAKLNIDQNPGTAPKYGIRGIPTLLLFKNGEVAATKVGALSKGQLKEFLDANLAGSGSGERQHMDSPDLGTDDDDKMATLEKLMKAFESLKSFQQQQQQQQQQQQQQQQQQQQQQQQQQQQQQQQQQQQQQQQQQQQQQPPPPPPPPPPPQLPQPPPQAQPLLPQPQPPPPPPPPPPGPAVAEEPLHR", "test": "Biacore SPR, Mur46 coupled flow cell", "details": "binding to Mur46; 0.1 mM compound concentration", "description": "as §1\nBiacore Affinity Values for Binding of Compounds to Mur46"}, "zebrafish larvae": {"system": "zebrafish larvae", "test": "Motility Zebrafish Model (MPP+ exposure, photomotor assay and sleep)", "details": "500 µM MPP+ alone (naïve 40.8)", "protocol": "Six groups were included in each experiment. Immediately after spawning, 40 embryos per group were allocated to a 24-well plate and system water (solvent) was added to all wells. […] MPP+ was prepared immediately prior to incubation and solutions were changed daily. At 120 hpf, drug treatment and MPP+ exposure was ceased and a 3X wash was performed with system water. Larvae were then relocated to 96-well plates for behavioral recording and placed in a separate recording room for 24-hour acclimation. Prior to behavioral recording, wells were fully replenished system water.\nNaive group was exposed to solvent only. Vehicle group was exposed to solvent and vehicle corresponding to the vehicle of 20 µM drug solution (0.02% DMSO). MPP+ positive control was exposed to solvent and 500 µM MPP+.\nBehavioral data was recorded from 1 p.m. on 6 dpf until shortly after wakening on 7 dpf. The recording consisted of a photomotor assay in which lights switch off and on in 30-minute intervals between 1 p.m. and 6 p.m., producing a consistent photomotor response. […] Upon lights being turned on again, the larvae cease movement followed by a return to baseline. This cycle is repeated five times. Following the last lights-off phase, constant illumination is presented until lights turn off at 10 p.m. for the night. Lights turn on again at 8 a.m. the following day.\nAverage movement frequency was measured during 30-minute lights-on phases of photomotor assay.\nDistance moved (mm) was defined as the average distance moved during 30-minute lights-on phases of photomotor assay.\nAll data are presented as mean ± standard error of the mean (sem). For analysis of differences between groups, a Kruskal-Wallis one-way ANOVA with Dunn's multiple comparison post hoc test was performed. P < 0.05 was considered statistically significant."}},
  "data": [
    {"smiles": "Cc1[nH]c2ccc(C(=O)Nc3ccccc3NC3CCN(C)CC3)cc2c1C", "note": "[Compound 103]", "values": [
      {"measurement": "Binding properties", "setting": "Mur16 and/or Mur46", "value": "++"}
    ]},
    {"smiles": "Cc1[nH]c2ccc(C(=O)NCCN(C)C3CCCC3)cc2c1C", "note": "[Compound 105]", "values": [
      {"measurement": "Binding properties", "setting": "Mur16 and/or Mur46", "value": "++"}
    ]},
    {"smiles": "O=C(O)C1Cc2c([nH]c3ccccc23)C(c2cccc(Br)c2)N1", "note": "(centres unmarked) [Compound 109]", "values": [
      {"measurement": "Biacore affinity", "setting": "Mur16 and/or Mur46", "value": 3, "unit": "RU^2"}
    ]},
    {"smiles": "Cc1[nH]c2ccccc2c1[C@]1(O)C(=O)Nc2c(Br)cc(Br)cc21", "note": "[Compound 110]", "values": [
      {"measurement": "Biacore affinity", "setting": "Mur16 and/or Mur46", "value": 80, "unit": "RU^2"}
    ]},
    {"smiles": "Cc1[nH]c2ccc(C(=O)NCC(=O)NC(C)C)cc2c1C", "note": "[Compound 113]", "values": [
      {"measurement": "Biacore affinity", "setting": "Mur16 and/or Mur46", "value": 160, "unit": "RU^2"}
    ]},
    {"smiles": "Cc1[nH]c2ccc(C(=O)N(C)CCN(C)C3CC3)cc2c1C", "note": "[Compound 114]", "values": [
      {"measurement": "Binding properties", "setting": "Mur16 and/or Mur46", "value": "+/-"},
      {"measurement": "Biacore affinity", "setting": "Mur46", "value": 20, "unit": "RU^2"}
    ]},
    {"smiles": "C[n+]1ccc(-c2ccccc2)cc1", "note": "[MPP+, 1-methyl-4-phenylpyridinium, reference compound]", "values": [
      {"measurement": "movement frequency", "setting": "zebrafish larvae", "value": "13.3 movement bouts in 30 minutes"}
    ]}
  ]
}
